Legend:
[1] = tested on: CAL-148 (Breast Carcinoma); experiment: Bliss excess, mean over the matrix (fraction); higher = more synergy
In short: (§1)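 Bliss excess equals the observed combination effect minus the expected value EA + EB − EA·EB, where EA and EB are the effects of each agent alone. Combination Emax is the second-highest inhibition within the matrix. Inhibition was scaled from CellTiter-Glo 2.0 luminescence, with 0 set by vehicle wells and 1 by blank wells, after 72 hours of two-drug dosing of cells plated in 1536-well plates.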

[2] = tested on: CCRF-CEM (T-Lymphoblastic Leukemia); experiment: as above
In short: as §1

[3] = tested on: CaR-1 (Colorectal Carcinoma); experiment: as above
In short: as §1

[4] = tested on: DoTc2-4510 (Cervical Carcinoma); experiment: as above
In short: as §1

[5] = tested on: HCC-78 (Lung Adenocarcinoma); experiment: as above
In short: as §1

[6] = tested on: HO-1-N-1 (Oral Cavity Carcinoma); experiment: as above
In short: as §1

[7] = tested on: HOS (Osteosarcoma); experiment: as above
In short: as §1

[8] = tested on: HT-1376 (Bladder Carcinoma); experiment: as above
In short: as §1

[9] = tested on: Hs-578-T (Breast Carcinoma); experiment: as above
In short: as §1

[10] = tested on: KELLY (Neuroblastoma); experiment: as above
In short: as §1

[11] = tested on: KURAMOCHI (Ovarian Carcinoma); experiment: as above
In short: as §1

[12] = tested on: LB831-BLC (Bladder Carcinoma); experiment: as above
In short: as §1

[13] = tested on: NB10 (Neuroblastoma); experiment: as above
In short: as §1

[14] = tested on: NCI-H2085 (Non-Small Cell Lung Carcinoma); experiment: as above
In short: as §1

[15] = tested on: NCI-H82 (Small Cell Lung Carcinoma); experiment: as above
In short: as §1

[16] = tested on: Ramos-2G6-4C10 (Burkitt's Lymphoma); experiment: as above
In short: as §1

[17] = tested on: CAL-148 (Breast Carcinoma); experiment: combination Emax (second highest fraction inhibited in the dose matrix, 72 h); higher = more inhibition; extreme values may be limits of the assay
In short: as §1

[18] = tested on: DoTc2-4510 (Cervical Carcinoma); experiment: as above
In short: as §1

[19] = tested on: Hs-578-T (Breast Carcinoma); experiment: as above
In short: as §1

[20] = tested on: ME-1 (Acute Myeloid Leukemia); experiment: as above
In short: as §1

| Structure (SMILES) | Bliss excess [1] | Bliss excess [2] | Bliss excess [3] | Bliss excess [4] | Bliss excess [5] | Bliss excess [6] | Bliss excess [7] | Bliss excess [8] | Bliss excess [9] | Bliss excess [10] | Bliss excess [11] | Bliss excess [12] | Bliss excess [13] | Bliss excess [14] | Bliss excess [15] | Bliss excess [16] | combination Emax [17] | combination Emax [18] | combination Emax [19] | combination Emax [20] |
| --- | --- | --- | --- | --- | --- | --- | --- | --- | --- | --- | --- | --- | --- | --- | --- | --- | --- | --- | --- | --- |
| Cc1c2c(nn1C)CSCc1cc(n(C)n1)CSc1cc(c3ccccc3c1)OCCCc1c(C(=O)O)n(C)c3c-2c(Cl)ccc13 [AZD5991] + CS(=O)(=O)CCNCc1ccc(-c2ccc3ncnc(Nc4ccc(OCc5cccc(F)c5)c(Cl)c4)c3c2)o1 [Lapatinib] (first compound max 1 µM, 7x7, partner max 10 µM) | 0.0041 | -0.0676 | 0.0071 | -0.0004 | -0.0167 | 0.0972 | -0.0365 | -0.0102 | -0.0984 | 0.0879 | -0.012 | -0.0215 | -0.0197 | 0.0494 | -0.0161 | 0.0153 | 0.492 | 0.549 | 0.833 | 0.646 |
| Cc1c2c(nn1C)CSCc1cc(n(C)n1)CSc1cc(c3ccccc3c1)OCCCc1c(C(=O)O)n(C)c3c-2c(Cl)ccc13 [AZD5991] + Nc1ccn([C@@H]2O[C@H](CO)[C@@H](O)C2(F)F)c(=O)n1 [Gemcitabine] (first compound max 1 µM, 7x7, partner max 0.3 µM) | 0.122 | -0.0164 | -0.0383 | -0.0282 | -0.0102 | -0.0071 | 0.0054 | -0.03 | 0.0298 | -0.0253 | 0.0117 | -0.0443 | -0.0006 | -0.021 | 0.003 | 0.0162 | 0.929 | 0.544 | 0.663 | 0.676 |
| C[C@@H]1COCCN1c1cc(C2([S@](C)(=N)=O)CC2)nc(-c2ccnc3[nH]ccc23)n1 [AZD6738] + C1CC(C1)(C(=O)[O-])C(=O)[O-].N.N.[Pt+2] [Carboplatin] (first compound max 10 µM, 7x7, partner max 10 µM) | -0.11 | -0.0161 | -0.0464 | -0.0562 | -0.0401 | 0.0156 | -0.0209 | -0.039 | -0.0559 | -0.0516 | 0.0222 | -0.051 | -0.0562 | -0.067 | -0.117 | -0.0421 | 0.818 | 0.492 | 0.69 | 0.348 |
| Cc1cc2ncnn2cc1Nc1ncc2c(n1)n(C1CCOCC1)c(=O)n2C [AZD7648] + COc1cc([C@@H]2c3cc4c(cc3[C@@H](O[C@@H]3O[C@@H]5CO[C@@H](C)O[C@H]5[C@H](O)[C@H]3O)[C@H]3COC(=O)[C@H]23)OCO4)cc(OC)c1O [Etoposide] (first compound max 10 µM, 7x7, partner max 10 µM) | 0.163 | 0.104 | 0.0253 | 0.116 | 0.0695 | 0.23 | 0.0772 | -0.0021 | 0.0777 | 0.0734 | 0.0716 | 0.103 | 0.0154 | 0.0734 | 0.0583 | 0.0563 | 1 | 0.721 | 0.662 | 0.272 |
| C[C@@H](Nc1cc(F)cc(F)c1)c1cc(C(=O)N(C)C)cc2c(=O)cc(N3CCOCC3)oc12 [AZD8186] + C1CN(CCC1(C(=O)N[C@@H](CCO)C2=CC=C(C=C2)Cl)N)C3=NC=NC4=C3C=CN4 [AZD5363] (first compound max 10 µM, 7x7, partner max 10 µM) | -0.0019 | 0.007 | 0.0054 | -0.0017 | 0.0408 | 0.0627 | -0.0447 | -0.0404 | -0.0815 | -0.0246 | -0.037 | -0.0398 | -0.0398 | -0.045 | -0.0759 | -0.0898 | 0.989 | 0.286 | 0.7 | 0.103 |
| C[C@@H](Nc1cc(F)cc(F)c1)c1cc(C(=O)N(C)C)cc2c(=O)cc(N3CCOCC3)oc12 [AZD8186] + CC(=O)c1c(C)c2cnc(Nc3ccc(N4CCNCC4)cn3)nc2n(C2CCCC2)c1=O [Palbociclib] (first compound max 10 µM, 7x7, partner max 10 µM) | 0.033 | -0.0167 | -0.0054 | -0.0639 | 0.0329 | 0.0805 | -0.0227 | -0.037 | -0.0091 | 0.0897 | -0.0358 | -0.0414 | 0.0425 | 0.0565 | -0.0338 | -0.0328 | 0.655 | 0.297 | 0.656 | 0.233 |
| N#Cc1cnc(Nc2cc(NC[C@H]3CNCCO3)c(C(F)(F)F)cn2)cn1 [SRA737] + C=CCn1c(=O)c2cnc(Nc3ccc(N4CCN(C)CC4)cc3)nc2n1-c1cccc(C(C)(C)O)n1 [AZD1775] (first compound max 10 µM, partner max 1 µM) | 0.184 | 0.0688 | -0.0239 | 0.074 | 0.0611 | 0.0976 | 0.06 | 0.0357 | 0.0771 | 0.0387 | -0.0194 | -0.0446 | 0.105 |  | 0.0115 | 0.119 | 0.969 | 0.725 | 0.783 | 0.566 |
